Measurements published in paper PMC11506481, “Influence of Harvesting Stage on Phytochemical Composition, Antioxidant, and Antidiabetic Activity of Immature Ceratonia siliqua L. Pulp from Béni Mellal-Khénifra Region, Morocco: In Silico, In Vitro, and In Vivo Approaches” (Current Issues in Molecular Biology, 2024).
In brackets after ≈: the same amount, converted by molar mass.

Biological target: T1, intestinal α-glucosidase
T1 construct: gene MAL12; human 5NN8 only used for docking
Assay: sucrose hydrolysis, GOD-POD glucose read-out at […] nm
Assay type: biochemical
Details: sucrose as substrate; phosphate buffer pH 7.5; 37 °C

IC50: 0.089 ± 0.004 µg/mL (≈ 0.138 µM)
SMILES: C[C@H]1O[C@H](O[C@H]2[C@H](O)[C@@H](O)[C@@H](O[C@H]3[C@H](O)[C@@H](O)C(O)O[C@@H]3CO)O[C@@H]2CO)[C@H](O)[C@@H](O)[C@@H]1N[C@H]1C=C(CO)[C@@H](O)[C@H](O)[C@H]1O (stereo partly shown) [acarbose]
